Measurements taken from patent publication US20170042152A1, “SAFENED HERBICIDAL COMPOSITIONS COMPRISING PYRIDINE CARBOXYLIC ACIDS” (priority 2015, published 2017).

Experiments:
spring wheat (TRZAS) = assay: Greenhouse postemergence safening trial, crop phytotoxicity; type: in vivo, Triticum aestivum; settings: herbicide 0 g ae/ha, 20-22 d
Method: (§1) Seeds of the desired test plant species were planted in Sun Gro MetroMix® 306 planting mixture, which typically has a pH of 6.0 to 6.8 and an organic matter content of about 30 percent, in plastic pots with a surface area of 103.2 square centimeters (cm^2). When required to ensure good germination and healthy plants, a fungicide treatment and/or other chemical or physical treatment was applied. The plants were grown for 7-36 days (d) in a greenhouse with an approximate 14-hour (h) photoperiod which was maintained at about 18° C. during the day and 17° C. during the night. Nutrients and water were added on a regular basis and supplemental lighting was provided with overhead metal halide 1000-Watt lamps as necessary. The plants were employed for testing when they reached the second or third true leaf stage.
(§2) Weighed amounts of technical material were dissolved in a volume of 97:3 volume per volume (v/v) acetone/dimethyl sulfoxide (DMSO) to stock solutions. […] Compound requirements are based upon a 12 milliliter (mL) application volume at a rate of 187 liters per hectare (L/ha). Stock solutions of the safeners were prepared following the same procedure. Spray solutions of the safeners and experimental compound mixtures were prepared by adding the stock solutions to the appropriate amount of dilution solution to form a 12 mL spray solution in two-way combinations. Formulated compounds were applied to the plant material with an overhead Mandel track sprayer equipped with 8002E nozzles calibrated to deliver 187 L/ha over an application area of 0.503 square meters (m^2) at a spray height of 18 inches (43 centimeters (cm)) above average plant canopy. Control plants were sprayed in the same manner with the solvent blank.
(§3) The treated plants and control plants were placed in a greenhouse as described above and watered by sub-irrigation to prevent wash-off of the test compounds. After 20-22 d, the condition of the test plants as compared with that of the control plants was determined visually and scored on a scale of 0 to 100 percent where 0 corresponds to no injury and 100 corresponds to complete kill. Colby's equation was used to determine the herbicidal effects expected from the mixtures.

winter wheat (TRZAW) [1] = assay: as above; type: in vivo, Triticum aestivum; settings: herbicide 0 g ae/ha, 20-22 d
Method: as §1, §2, §3

spring barley (HORVS) = assay: as above; type: in vivo, Hordeum vulgare; settings: herbicide 0 g ae/ha, 20-22 d
Method: as §1, §2, §3

wild buckwheat (POLCO) = assay: Greenhouse postemergence trial, weed efficacy; type: in vivo, Polygonum convulvus; settings: herbicide 0 g ae/ha, 20-22 d
Method: as §1, §2, §3

kochia (KCHSC) = assay: Greenhouse postemergence trial, weed efficacy; type: in vivo, Kochia scoparia; settings: herbicide 0 g ae/ha, 20-22 d
Method: as §1, §2, §3

Russian thistle (SASKR) = assay: Greenhouse postemergence trial, weed efficacy; type: in vivo, Salsola iberica; settings: herbicide 0 g ae/ha, 20-22 d
Method: as §1, §2, §3

wild pansy (VIOTR) = assay: Greenhouse postemergence trial, weed efficacy; type: in vivo, Viola tricolor; settings: herbicide 0 g ae/ha, 20-22 d
Method: as §1, §2, §3

[2] = test system: bird's-eye speedwell (VERPE); assay: Greenhouse postemergence trial, weed efficacy; type: in vivo, Veronica persica; settings: herbicide 0 g ae/ha, 20-22 d
Method: as §1, §2, §3

wild mustard (SINAR) = assay: Greenhouse postemergence trial, weed efficacy; type: in vivo, Sinapis arvensis; settings: herbicide 0 g ae/ha, 20-22 d
Method: as §1, §2, §3

wild chamomile (MATCH) = assay: Greenhouse postemergence trial, weed efficacy; type: in vivo, Matricaria chamomilla; settings: herbicide 0 g ae/ha, 20-22 d
Method: as §1
as §2, with “Control plants were sprayed in the same manner with the solvent blank.” left out
(§4) The treated plants and control plants were placed in a greenhouse as described above and watered by sub-irrigation to prevent wash-off of the test compounds. After 20-22 d, the condition of the test plants as compared with that of the control plants was determined visually and scored on a scale of 0 to 100 percent where 0 corresponds to no injury and 100 corresponds to complete kill. […]

shepherd's purse (CAPBP) = assay: Greenhouse postemergence trial, weed efficacy; type: in vivo, Capsella bura-pastoris; settings: herbicide 0 g ae/ha, 20-22 d
Method: as §1, §2, §3

lambsquarters (CHEAL) [3] = assay: Greenhouse postemergence trial, weed efficacy; type: in vivo, Chenopodium album; settings: herbicide 0 g ae/ha, 20-22 d
Method: as §1, §2, §3

pigweed (AMARE) = assay: Greenhouse postemergence trial, weed efficacy; type: in vivo, Amaranthis retroflexus; settings: herbicide 0 g ae/ha, 20-22 d
Method: as §1
as §2, with “Control plants were sprayed in the same manner with the solvent blank.” left out
as §4

Canada thistle (CIRAR) [4] = assay: Greenhouse postemergence trial, weed efficacy; type: in vivo, Cirsium arvense; settings: herbicide 0 g ae/ha, 20-22 d
Method: as §1
as §2, with “Control plants were sprayed in the same manner with the solvent blank.” left out
as §4

winter wheat (TRZAW) [5] = assay: Small plot field trial, crop safety; type: in vivo, Triticum aestivum; settings: 20 g ae/ha herbicide (triisopropanol amine salt), no safener, post-emergence, mean
Method: (§5) The triisopropanol amine salts of herbicides of formulas I-G-A, I-G-B and I-G-C were tested with and without cloquintocet-mexyl in small plot field trials across various ecozones to evaluate the crop safety of these compounds on […] cereals including winter wheat and durum wheat.
(§6) All herbicide treatments were applied post-emergence in the spring to early summer. Herbicides were applied with bicycle or tractor-mounted sprayers using carbon dioxide (CO2) as a propellant. The sprayers delivered a uniform spray pattern that provided thorough coverage of the foliage using a 150 or 200 L/ha spray volume. At the time of herbicide applications, winter wheat was at the two leaf growth stage and durum wheat was at the 2-3 leaf growth stage.
(§7) Phytotoxicity to cereal crops was visually assessed as percent overall injury, compared to an untreated control plot. The overall injury assessments were based on visual ratings of growth inhibition, chlorosis, and delay in maturity. At late ratings (54-57 days after application), percent visual seed head deformity and reduction in seed formation were also assessed. Trials were designed as randomized complete blocks with four replicates. In general, three to four replicates were assessed for each treatment.

Canada thistle (CIRAR) [6] = assay: Small plot field trial, weed growth reduction; type: in vivo, Cirsuim arvensis; settings: 20 g ae/ha herbicide (triisopropanol amine salt), no safener, post-emergence, mean
durum wheat (TRZDU) = assay: Small plot field trial, crop safety; type: in vivo, Triticum durum; settings: 20 g ae/ha herbicide (triisopropanol amine salt), no safener, post-emergence, mean
Method: as §5, §6, §7

lambsquarters (CHEAL) [7] = assay: Small plot field trial, weed growth reduction; type: in vivo, Chenopodium album; settings: 20 g ae/ha herbicide (triisopropanol amine salt), no safener, post-emergence, mean
[8] = cloquintocet-mexyl 4.375 g ai/ha
[9] = cloquintocet-mexyl 8.75 g ai/ha
[10] = cloquintocet-mexyl 17.5 g ai/ha

CCCCCC(C)OC(=O)COc1ccc(Cl)c2cccnc12 (centres unmarked) [Cloquintocet-mexyl, cloquintocet-mexyl]
% visual injury TRZAS Ob (spring wheat (TRZAS); [8]): 0% | % visual injury TRZAS Ob (spring wheat (TRZAS); [9]): 0% | % visual injury TRZAS Ob (spring wheat (TRZAS); [10]): 0% | % visual injury TRZAS Ob (spring wheat (TRZAS); cloquintocet-mexyl 35 g ai/ha): 0% | % visual injury TRZAS Ob (spring wheat (TRZAS); cloquintocet-mexyl 70 g ai/ha): 0% | % visual injury TRZAW Ob (winter wheat (TRZAW) [1]; cloquintocet-mexyl 20 g ai/ha): 0% | % visual injury TRZAW Ob (winter wheat (TRZAW) [1]; cloquintocet-mexyl 40 g ai/ha): 0% | % visual injury TRZAW Ob (winter wheat (TRZAW) [1]; cloquintocet-mexyl 80 g ai/ha): 0% | % visual injury HORVS Ob (spring barley (HORVS); [8]): 0% | % visual injury HORVS Ob (spring barley (HORVS); [9]): 0% | % visual injury HORVS Ob (spring barley (HORVS); [10]): 0% | % visual injury HORVS Ob (spring barley (HORVS); cloquintocet-mexyl 20 g ai/ha): 0% | % visual injury HORVS Ob (spring barley (HORVS); cloquintocet-mexyl 35 g ai/ha): 0% | % visual injury HORVS Ob (spring barley (HORVS); cloquintocet-mexyl 40 g ai/ha): 0% | % visual injury HORVS Ob (spring barley (HORVS); cloquintocet-mexyl 70 g ai/ha): 0% | % visual injury HORVS Ob (spring barley (HORVS); cloquintocet-mexyl 80 g ai/ha): 0% | % visual injury POLCO Ob (wild buckwheat (POLCO); [8]): 0% | % visual injury POLCO Ob (wild buckwheat (POLCO); [9]): 0% | % visual injury POLCO Ob (wild buckwheat (POLCO); [10]): 0% | % visual injury POLCO Ob (wild buckwheat (POLCO); cloquintocet-mexyl 35 g ai/ha): 0% | % visual injury POLCO Ob (wild buckwheat (POLCO); cloquintocet-mexyl 70 g ai/ha): 0% | % visual injury KCHSC Ob (kochia (KCHSC); [8]): 0% | % visual injury KCHSC Ob (kochia (KCHSC); [9]): 0% | % visual injury KCHSC Ob (kochia (KCHSC); [10]): 0% | % visual injury KCHSC Ob (kochia (KCHSC); cloquintocet-mexyl 20 g ai/ha): 0% | % visual injury KCHSC Ob (kochia (KCHSC); cloquintocet-mexyl 35 g ai/ha): 0% | % visual injury KCHSC Ob (kochia (KCHSC); cloquintocet-mexyl 40 g ai/ha): 0% | % visual injury KCHSC Ob (kochia (KCHSC); cloquintocet-mexyl 70 g ai/ha): 0% | % visual injury KCHSC Ob (kochia (KCHSC); cloquintocet-mexyl 80 g ai/ha): 0% | % visual injury SASKR Ob (Russian thistle (SASKR); [8]): 0% | % visual injury SASKR Ob (Russian thistle (SASKR); [9]): 0% | % visual injury SASKR Ob (Russian thistle (SASKR); [10]): 0% | % visual injury SASKR Ob (Russian thistle (SASKR); cloquintocet-mexyl 35 g ai/ha): 0% | % visual injury SASKR Ob (Russian thistle (SASKR); cloquintocet-mexyl 70 g ai/ha): 0% | % visual injury VIOTR Ob (wild pansy (VIOTR); [8]): 0% | % visual injury VIOTR Ob (wild pansy (VIOTR); [9]): 0% | % visual injury VIOTR Ob (wild pansy (VIOTR); [10]): 0% | % visual injury VIOTR Ob (wild pansy (VIOTR); cloquintocet-mexyl 20 g ai/ha): 0% | % visual injury VIOTR Ob (wild pansy (VIOTR); cloquintocet-mexyl 35 g ai/ha): 0% | % visual injury VIOTR Ob (wild pansy (VIOTR); cloquintocet-mexyl 40 g ai/ha): 0% | % visual injury VIOTR Ob (wild pansy (VIOTR); cloquintocet-mexyl 70 g ai/ha): 0% | % visual injury VIOTR Ob (wild pansy (VIOTR); cloquintocet-mexyl 80 g ai/ha): 0% | % visual injury VERPE Ob [2, 8]: 0% | % visual injury VERPE Ob [2, 9]: 0% | % visual injury VERPE Ob [2, 10]: 0% | % visual injury VERPE Ob ([2]; cloquintocet-mexyl 35 g ai/ha): 0% | % visual injury VERPE Ob ([2]; cloquintocet-mexyl 70 g ai/ha): 0% | % visual injury SINAR Ob (wild mustard (SINAR); cloquintocet-mexyl 20 g ai/ha): 0% | % visual injury SINAR Ob (wild mustard (SINAR); cloquintocet-mexyl 40 g ai/ha): 0% | % visual injury SINAR Ob (wild mustard (SINAR); cloquintocet-mexyl 80 g ai/ha): 0% | % visual injury MATCH Ob (wild chamomile (MATCH); cloquintocet-mexyl 20 g ai/ha): 0% | % visual injury MATCH Ob (wild chamomile (MATCH); cloquintocet-mexyl 40 g ai/ha): 0% | % visual injury MATCH Ob (wild chamomile (MATCH); cloquintocet-mexyl 80 g ai/ha): 0% | % visual injury CAPBP Ob (shepherd's purse (CAPBP); cloquintocet-mexyl 20 g ai/ha): 0% | % visual injury CAPBP Ob (shepherd's purse (CAPBP); cloquintocet-mexyl 40 g ai/ha): 0% | % visual injury CAPBP Ob (shepherd's purse (CAPBP); cloquintocet-mexyl 80 g ai/ha): 0% | % visual injury CHEAL Ob (lambsquarters (CHEAL) [3]; cloquintocet-mexyl 20 g ai/ha): 0% | % visual injury CHEAL Ob (lambsquarters (CHEAL) [3]; cloquintocet-mexyl 40 g ai/ha): 0% | % visual injury CHEAL Ob (lambsquarters (CHEAL) [3]; cloquintocet-mexyl 80 g ai/ha): 0% | % visual injury AMARE Ob (pigweed (AMARE); cloquintocet-mexyl 20 g ai/ha): 0% | % visual injury AMARE Ob (pigweed (AMARE); cloquintocet-mexyl 40 g ai/ha): 0% | % visual injury AMARE Ob (pigweed (AMARE); cloquintocet-mexyl 80 g ai/ha): 0% | % visual injury CIRAR Ob (Canada thistle (CIRAR) [4]; cloquintocet-mexyl 20 g ai/ha): 0% | % visual injury CIRAR Ob (Canada thistle (CIRAR) [4]; cloquintocet-mexyl 40 g ai/ha): 0% | % visual injury CIRAR Ob (Canada thistle (CIRAR) [4]; cloquintocet-mexyl 80 g ai/ha): 0%

CC(F)c1nc(C(=O)O)c(Cl)c(N)c1F (centres unmarked) [formula I-G-B]
Instances of TRZAW grain reduction, % of untreated (winter wheat (TRZAW) [5]): 83.3 % of untreated | TRZAW grain formation reduction, % of untreated (winter wheat (TRZAW) [5]): 68.3 % of untreated | Growth reduction of CIRAR, % of untreated (Canada thistle (CIRAR) [6]): 85 % of untreated | TRZDU Visual head deformation, % of untreated (durum wheat (TRZDU)): 6.4 % of untreated | TRZDU Visual injury, % of untreated (durum wheat (TRZDU)): 6.4 % of untreated | Growth reduction of CHEAL, % of untreated (lambsquarters (CHEAL) [7]): 100 % of untreated

CC(F)(F)c1nc(C(=O)O)c(Cl)c(N)c1F [formula I-G-C]
TRZDU Visual head deformation, % of untreated (durum wheat (TRZDU)): 23.6 % of untreated | TRZDU Visual injury, % of untreated (durum wheat (TRZDU)): 33.6 % of untreated | Growth reduction of CHEAL, % of untreated (lambsquarters (CHEAL) [7]): 100 % of untreated
